In patent US9067920B2, “Compounds useful for inhibiting Chk1” (Eli Lilly and Company, priority 2010, dated 2015):
Where a name gives a salt, the structure may show the parent alone.

Assays:
HeLa cells = assay: Doxorubicin-induced G2M checkpoint abrogation HeLa cell-based Acumen assay (pHH3); conditions: 125 nM doxorubicin, 7 h compound
Experimental: An inhibitor of Chk1 will disable the G2M DNA damage checkpoint in p53-minus tumor cells treated with the topoisomerase II inhibitor, doxorubicin. A measurement of G2M checkpoint abrogation is the phosphorylation of histone H3 on serine 10 that occurs after cells traverse the G2M checkpoint and enter mitosis. The following high content imaging assay can be used to measure the phosphorylation histone H3 in cells. HeLa cells are cultured in MEM Media supplemented with 10% (v/v) FBS and plated at 2000 cells per well in poly D-lysine coated clear bottom black plates, 100 μL volume per well. Plates are then incubated in a cell culture incubator for 18-24 h (37° C., 5% CO2 and 95% relative humidity), Following the initial incubation, 20 μL of MEM Media plus 10% FBS containing […] doxorubicin are added to the appropriate wells of the plates resulting in a final concentration of 125 nM. The plates are returned to the incubator for 24 h, sufficient to arrest the cells at the G2M checkpoint. The next day the cells are treated 1.0 with compounds. Compounds are solubilized at […] in 100% DMSO and then diluted to a 10× stock starting at 50 μM in MEM plus 4% (v/v) DMSO. Subsequently, serial dilutions of the compounds (1:2) are prepared over a 50 μM to 0.39 μM range. Thirteen μL of compound stock is added to the appropriate wells in the plate to produce a final DMSO concentration of 0.4% and a final compound concentration range between 5 and 0.039 μM. […] Plates are scanned with ACUMEN EXPLORER™ Laser-scanning fluorescence microplate cytometers using 488 nm excitation (TTP LABTECH LTC) to measure pHH3 and DNA content including 2N, and 4N, The pHH3 positive cells are identified by mean intensity at 519 nm from Alexa 488. […] The final readout for each population is determined by normalizing to the % of total cells producing a final assay output of % pHH3, % 2N, and % 4N. 100% activity is then determined by treating cells with the maximum concentration of an inhibitor control compound at 100 nM to determine the final % activity of each compound. […]

[1] = system: Calu-6 lung tumor xenograft; assay: Calu-6 tumor xenograft model, oral administration of Chk1 inhibitor; type: in vivo, nude mice
Experimental: The ability of Chk1 inhibitors to potentiate tumor killing by DNA damaging agents can be determined in vivo using the Calu-6 lung and HT-29 colon tumor xenograft efficacy models. Calu-6 lung cancer cells are cultured in growth media (MEM with Earle's Balanced Salt Solution with L-glutamine supplemented with 10% (v/v) heat inactivated FBS, 1×MEM non-essential amino acids, 1× sodium pyruvate) and HT-29 colon cancer cells (ATCC) are cultured in growth media, (McCoy's 5A medium supplemented with 10% FBS) and expanded.
Cells are harvested and washed twice with phosphate buffered saline and 5×10^6 cells (HT-29) or 1×10^6 a cells (Calu-6) in growth media (without serum) are mixed with equal volume of BD Matrigel™ matrix, then injected subcutaneously into the flank of nude mice (CD-1 nu/nu).
At about day 16 after implant (150-200 mm^3), gemcitabine is formulated fresh in saline daily and administered to animals by intraperitoneal route at 40 mg/kg dose. Twenty four hours later animals are administered Chk1 compound, in 0.2% Tween-80/0.5% methylcellulose by the oral route MD. After three days of rest, dosing was repeated for three additional cycles (Q5Dx4 with the compound of Example 3 offset+24 hours). Tumor growth inhibition (TGI) is calculated as described in the previous paragraph. Compounds within the scope of the invention are tested in this assay run substantially as above.

COc1nc(C)ccc1-c1cc(Nc2cncc(O[C@@H]3CCCNC3)n2)[nH]n1 [Example 1, (R)-[5-(2-Methoxy-6-methyl-pyridin-3-yl)-2H-pyrazol-3-yl]-[6-(piperidin-3-yloxy)-pyrazin-2-yl]-amine]
EC50 (HeLa cells; Homo sapiens, HeLa, 7 h): 29 nM

COc1nc(C)ccc1-c1cc(Nc2cncc(O[C@@H]3CCCNC3)n2)[nH]n1 [Example 3, (R)-[5-(2-Methoxy-6-methyl-pyridin-3-yl)-2H-pyrazol-3-yl]-[6-(piperidin-3-yloxy)-pyrazin-2-yl]-amine acetic acid salt]
EC50 (HeLa cells; acetic acid salt): 19 nM | % TGI at day 37 ([1]; Calu6, Example 3 30 mpk oral alone): 37% | anti-tumor activity in combination with gemcitabine ([1]; Calu-6 xenograft, oral, gemcitabine 40 mg/kg ip): excellent dose dependent anti-tumor activity
